Values joined by “and” are separate entries in the source; they are usually repeats but may differ in a detail not shown here. Equal values may be shown once.
Experiments:
[1] = Maximum recommended starting dose in humans from preclinical studies; set-up: species or system human
Procedure: A starting dose of 5 mg was chosen as this was approximately twofold lower than the maximum recommended starting dose (MRSD) in humans of 9.6 mg determined from the results of a murine PD study, and was therefore not expected to have any pharmacological activity. This dose was also more than 30-fold lower than the MRSD of 162 mg calculated from the no observed adverse effect level in the toxicology species (mouse and dog).

[2] = Fraction of unbound GB1211 in plasma; type: in vitro ADME; details: human
[3] = Safety and tolerability, Part B multiple ascending-dose phase in healthy participants; type: in vivo, human
Procedure: Following review of safety, tolerability, and PK data from cohorts A1–A6, participants received twice-daily doses (BID) under fasted conditions on days 1–9 and a final single dose in the morning of day 10. […] There was one treatment period and all participants stayed at the CRU from day − 1 until the morning of day 11 (24 h after the final dose on day 10). All were to return for a follow-up visit 5–7 days after their final dose.
Safety and tolerability assessments included adverse event (AE) monitoring, physical examinations, laboratory assessments (hematology, clinical chemistry, and urinalysis), vital signs (blood pressure, pulse rate, and body temperature) and ECG.
No formal statistical assessment was performed for the safety analysis.

OC[C@H]1O[C@H](Sc2cncc(Br)c2)[C@H](O)[C@@H](n2cc(-c3cc(F)c(F)c(F)c3)nn2)[C@H]1O [GB1211]
Maximum recommended starting dose (MRSD) ([1]; calculated from the no observed adverse effect level in the toxicology species (mouse and dog)): 162 mg
Maximum recommended starting dose (MRSD) in humans ([1]; determined from the results of a murine PD study): 9.6 mg
fraction unbound [2]: 0.0534
Number of TEAEs ([3]; 50 mg BID): 8
Participants discontinued due to TEAEs ([3]; 50 mg BID): 0 n (%)
Participants with SAEs ([3]; 50 mg BID): 0 n (%)
Participants with TEAEs ([3]; 50 mg BID): 4 (50.0) n (%) and 4 (50.0%) n (%)
Severity (all TEAEs): Mild ([3]; 50 mg BID): 2 (25.0) n (%)
Severity (all TEAEs): Moderate ([3]; 50 mg BID): 2 (25.0) n (%)
Severity (all TEAEs): Severe ([3]; 50 mg BID): 0 n (%)
Severity (all TEAEs): Total ([3]; 50 mg BID): 4 (50.0) n (%)
Severity (possibly related to study treatment): Mild ([3]; 50 mg BID): 2 (25.0) n (%)
Severity (possibly related to study treatment): Moderate ([3]; 50 mg BID): 2 (25.0) n (%)
Severity (possibly related to study treatment): Severe ([3]; 50 mg BID): 0 n (%)
Severity (possibly related to study treatment): Total ([3]; 50 mg BID): 4 (50.0) n (%)
TEAE Abdominal distension, participants ([3]; 50 mg BID): 0 n (%)
TEAE Abdominal pain upper, participants ([3]; 50 mg BID): 0 n (%)
TEAE Abdominal pain, participants ([3]; 50 mg BID): 0 n (%)
TEAE Arthralgia, participants ([3]; 50 mg BID): 0 n (%)
TEAE Constipation, participants ([3]; 50 mg BID): 0 n (%)
TEAE Dysuria, no. of AEs ([3]; 50 mg BID): 1
TEAE Dysuria, participants ([3]; 50 mg BID): 1 (12.5%) n (%)
TEAE Gastrointestinal disorders, participants ([3]; 50 mg BID): 0 n (%)
TEAE Headache, no. of AEs ([3]; 50 mg BID): 5
TEAE Headache, participants ([3]; 50 mg BID): 4 (50.0%) n (%)
TEAE Injury, poisoning and procedural complications, no. of AEs ([3]; 50 mg BID): 1
TEAE Injury, poisoning and procedural complications, participants ([3]; 50 mg BID): 1 (12.5%) n (%)
TEAE Limb injury, no. of AEs ([3]; 50 mg BID): 1
TEAE Limb injury, participants ([3]; 50 mg BID): 1 (12.5%) n (%)
TEAE Menstruation irregular, no. of AEs ([3]; 50 mg BID): 1
TEAE Menstruation irregular, participants ([3]; 50 mg BID): 1 (12.5%) n (%)
TEAE Musculoskeletal and connective tissue disorders, participants ([3]; 50 mg BID): 0 n (%)
TEAE Nervous system disorders, no. of AEs ([3]; 50 mg BID): 5
TEAE Nervous system disorders, participants ([3]; 50 mg BID): 4 (50.0%) n (%)
TEAE Pain in extremity, participants ([3]; 50 mg BID): 0 n (%)
TEAE Pollakiuria, participants ([3]; 50 mg BID): 0 n (%)
TEAE Renal and urinary disorders, no. of AEs ([3]; 50 mg BID): 1
TEAE Renal and urinary disorders, participants ([3]; 50 mg BID): 1 (12.5%) n (%)
TEAE Reproductive system and breast disorders, no. of AEs ([3]; 50 mg BID): 1
TEAE Reproductive system and breast disorders, participants ([3]; 50 mg BID): 1 (12.5%) n (%)
Number of TEAEs considered moderate ([3]; 50 mg BID cohort): Two
Number of TEAEs ([3]; 100 mg BID): 8
Participants discontinued due to TEAEs ([3]; 100 mg BID): 0 n (%)
Participants with SAEs ([3]; 100 mg BID): 0 n (%)
Participants with TEAEs ([3]; 100 mg BID): 3 (37.5) n (%) and 3 (37.5%) n (%)
Severity (all TEAEs): Mild ([3]; 100 mg BID): 3 (37.5) n (%)
Severity (all TEAEs): Moderate ([3]; 100 mg BID): 0 n (%)
Severity (all TEAEs): Severe ([3]; 100 mg BID): 0 n (%)
Severity (all TEAEs): Total ([3]; 100 mg BID): 3 (37.5) n (%)
Severity (possibly related to study treatment): Mild ([3]; 100 mg BID): 3 (37.5) n (%)
Severity (possibly related to study treatment): Moderate ([3]; 100 mg BID): 0 n (%)
Severity (possibly related to study treatment): Severe ([3]; 100 mg BID): 0 n (%)
Severity (possibly related to study treatment): Total ([3]; 100 mg BID): 3 (37.5) n (%)
TEAE Abdominal distension, no. of AEs ([3]; 100 mg BID): 1
TEAE Abdominal distension, participants ([3]; 100 mg BID): 1 (12.5%) n (%)
TEAE Abdominal pain upper, no. of AEs ([3]; 100 mg BID): 1
TEAE Abdominal pain upper, participants ([3]; 100 mg BID): 1 (12.5%) n (%)
TEAE Abdominal pain, participants ([3]; 100 mg BID): 0 n (%)
TEAE Arthralgia, no. of AEs ([3]; 100 mg BID): 1
TEAE Arthralgia, participants ([3]; 100 mg BID): 1 (12.5%) n (%)
TEAE Constipation, no. of AEs ([3]; 100 mg BID): 2
TEAE Constipation, participants ([3]; 100 mg BID): 2 (25.0%) n (%)
TEAE Dysuria, participants ([3]; 100 mg BID): 0 n (%)
TEAE Gastrointestinal disorders, no. of AEs ([3]; 100 mg BID): 4
TEAE Gastrointestinal disorders, participants ([3]; 100 mg BID): 2 (25.0%) n (%)
TEAE Headache, participants ([3]; 100 mg BID): 0 n (%)
TEAE Injury, poisoning and procedural complications, participants ([3]; 100 mg BID): 0 n (%)
TEAE Limb injury, participants ([3]; 100 mg BID): 0 n (%)
TEAE Menstruation irregular, participants ([3]; 100 mg BID): 0 n (%)
TEAE Musculoskeletal and connective tissue disorders, no. of AEs ([3]; 100 mg BID): 2
TEAE Musculoskeletal and connective tissue disorders, participants ([3]; 100 mg BID): 1 (12.5%) n (%)
TEAE Nervous system disorders, participants ([3]; 100 mg BID): 0 n (%)
TEAE Pain in extremity, no. of AEs ([3]; 100 mg BID): 1
TEAE Pain in extremity, participants ([3]; 100 mg BID): 1 (12.5%) n (%)
TEAE Pollakiuria, no. of AEs ([3]; 100 mg BID): 2
TEAE Pollakiuria, participants ([3]; 100 mg BID): 2 (25.0%) n (%)
TEAE Renal and urinary disorders, no. of AEs ([3]; 100 mg BID): 2
TEAE Renal and urinary disorders, participants ([3]; 100 mg BID): 2 (25.0%) n (%)
TEAE Reproductive system and breast disorders, participants ([3]; 100 mg BID): 0 n (%)
Participants with a TEAE possibly related to treatment, GB1211 ([3]; Part B): 7
Number of TEAEs on GB1211 ([3]; Part B, all GB1211 doses): 16
Participants with TEAEs on GB1211 ([3]; Part B, all GB1211 doses): 7

Source: paper PMC10010643 (Cancer Chemotherapy and Pharmacology, 2023)
